Entries after “also recorded” stand apart in the source; their conditions may differ. Blank lines part the entries; values can stand above or below the compound they belong to.
How the values were obtained:
[1] = tested on: striatum (a brain structure); test: In vivo injection into the striatum, gliosis (nissl stain); conditions: rats, 1 μl into the striatum
Description: Three hundred g rats were anesthesized with equithesin (0.3 ml/100 g body weight). The skull was surgically exposed and small burr holes were stereotaxically drilled at AP=+1.5, ML=+/−3.0 relative to bregma. An injection cannula was placed at a depth of −4.5 in the striatum (a brain structure). Experimental rats received 1 μl of EAK16 or RAD16 injected into the striatum. Control rats received similar injections of ibotenic acid, a well characterized toxin, as a positive contorl for gliosis, the experimental rats also received 35 μl injection of EAK16 or RAD16 into the thigh muscle (n=2 for each group). The rate were allowed to recover, then sacrificed for tissue harvest.

PC12 cells = test: In vitro neurite outgrowth on peptide membranes; assay type: cell-based, rat; set-up: Neurite outgrowth, NGF treated, 14 days: key to the marks not given beside the values
Description: The suitability of these materials for supporting in vitro neurite outgrowth was tested by treating biomaterial-attached PC12 cells with nerve growth factor (NGF). This treatment induces PC12 cells to differentiate into sympathetic neurons which can send out long processes called neurites. There was a marked difference in the neurite promoting properties of the two materials tested (EAK16 and RAD16).
Nerve growth factor differentiated PC12 cells have been used extensively in studies of neurite outgrowth. PC12 cells upregulate the number of calcium-dependent and -independent cell adhesion receptors in response to nerve growth factor. Cell attachment and neurite outgrowth from nerve growth factor differentiated PC12 cells was examined on membranes of RAD16 and EAK16 in order to determine whether membranes containing RGD-like sequences would preferentially support these cell activities. Neurite outgrowth on peptide membranes is of interest for potential applications of nerve repair.
Untreated PC12 cells were introduced to peptide membranes of EAK16 and RAD16 suspended in 85% RMMP1, 10% heat inactivated horse serum, 5 fetal bovine serum. Half of the cells were treated with nerve growth factor (50 ng/ml, NGF) and were supplemented with NGF every 3-4 days for 14 days. […] The neurite outgrowth reached greater than 400 μm in length, approximately 15-20 times the cell body, following the contour of the matrices in a three dimensional network.

[2] = assay type: physicochemical
Description: Once formed, the macroscopic membranes are stable in a variety of aqueous solutions, including water, phosphate-buffered saline (PBS), tissue culture medium, serum, and also in ethanol, and can be transferred to and stored in any of these liquids. […] The membranes can be transferred from one solution to another using a solid support such as a spatula. They can be broken by cutting, tearing or shearing.
The stability of the membranes was also tested under a range of temperature, pH and chemical conditions. For these experiments, membranes were formed by adding 20 μl of a 0.5 mM stock solution of EAK16 to 0.5 ml of PBS, and transferred into water or other solutions at test conditions.
The membranes could be frozen and thawed, although care was required in handling the frozen membranes which were brittle. In boiling water, the membranes tended to be sheared by the mechanical agitation. […] (FIGS. 9A and 9B). […] Such strong thermal stability of the defined β-sheet structure of EAK16 is unusual for a small peptide. For example, these findings contrast with the α-helix-forming sixteen residue (Ala, Glu, Lys)-containing peptides studied previously (Marqusee and Baldwin, 1987).
The EAK16 membranes were also tested in water at pH 1.5, 3, 7 and 11 at room temperature for at least a week and at 95° C. for about 4 hours. The membranes were unaffected at these pH. […] It is possible that the complementary interactions between the Glu and Lys side-chains are strong even when the carboxyl groups of the Glu residues have been protonated at pH 1.5 and 3, due to their ability to form hydrogen bonds even when protonated.
The EAK16 membranes were further tested for resistance to chemical denaturation under the following conditions: 1% and 10% sodium dodecyl sulfate (SDS); 1, 2, 3, 4, 5, 6 and 7 M guanidine-HCl; and 1, 2, 3, 4, 5, 6, 7 and 8 M urea. […] The membranes were also tested at 95° C. for 4 hours in 10% SDS; 7 M guanidine-HCl; and at 8 M urea.

[3] = tested on: NGF differentiated PC12 cells, retonic acid-differentiated human neuroblastoma and mouse cerebellum granule cells; test: Neurite outgrowth on biopolymers, several neuronal cell types; assay type: cell-based
Description: The invention further relates to the regeneration of nerves with filaments of the membranes of the present invention. Nerve regeneration can be promoted and directed by transplanting filaments of RAD16 along the correct path to their targets. This would be extremely useful for patients with severed peripheral nerves. Such a technology could be refined to help people with spinal cord injuries.

3T3 fibroblast cells = test: Cell attachment to biopolymer sheets, with serum or serum-free + cyclohexamide (Table 5); assay type: cell-based, mouse; set-up: key: ++++: strong attachment; +++: moderate attachment; ++: weak attachment; +/−: little or no attachment
Description: 3T3 fibroblast cells were introduced to membranes of RAD16 and EAK16 in normal serum-containing medium or in serum-free medium containing 30 μg/ml cyclohexamide (cells used for this condition were pretreated in this medium for 2 hours before plating). Cells were allowed to attach to the membranes for 30 minutes, 1 and 8 hours at 37° C. The attached cells were shaken for 10 minutes on a rotary rocker at 60 r.p.m., then scored under phase contrast microscopy. The decrease in cells attached to the membrane in the serum-free condition reflects cell loss due to serum deprivation.

PC12 = test: Cell attachment to biopolymer sheets, normal or Ca++ and Mg++ free medium (Table 6); assay type: cell-based, rat; set-up: key: ++++: strong attachment; +++: moderate attachment; ++: weak attachment; +/−: little or no attachment
Description: (§1) Cells were pretreated in serum-free medium containing 30 μg/ml cyclohexamide for 2 hours before introduction to the peptide membranes. The cells used for the calcium and magnesium-free condition were pre-equilibrated in Ca^++ and Mg^++ free medium containing 5 mM EDTA for 15 minutes before introduction to the peptide membranes. Cells were allowed to attach to the peptide membranes for 30 minutes, 1 and 8 hours at 37° C. The attached cells were shaken for […] on a rotary rocker at 60 r.p.m., then scored under phase contrast microscopy.

PC12NGF = test: as above; assay type: cell-based, rat; set-up: key: ++++: strong attachment; +++: moderate attachment; ++: weak attachment; +/−: little or no attachment
Description: as §1

[4] = Testing of peptides for macroscopic membrane formation (phase-contrast microscope, Congo Red staining); assay type: physicochemical
Description: The effect of length and sequence on membrane formation was examined using several peptides (Table 1 and Example 3). […] Very long peptides, e.g., of about 200 amino acids, may encounter problems due to insolubility and intramolecular interactions which destabilize membrane formation. […] The optimal lengths for membrane formation will probably vary with the amino acid composition.
The EAK12 and EAK16 tested for membrane formation were acetylated and aminylated at both N- and C-terminal ends. […] The peptides were initially dissolved in water (5 mg/ml) or in 23% acetonitrile (10 mg/ml). A volume of 5-10 microliters of the dissolved peptides were applied to the DMEM medium, PBS or water. The formation of the membrane was first observed under a phase-contrast microscope and then, by the naked eye after staining with Congo Red.

3T3 = test: Cell attachment to biopolymer sheets, normal or Ca++ and Mg++ free medium (Table 6); assay type: cell-based, mouse; set-up: key: ++++: strong attachment; +++: moderate attachment; ++: weak attachment; +/−: little or no attachment; conditions: 3T3, 30 min, Normal Ca^++ & Mg^++ serum-free + Cyclohex
Description: as §1

[5] = NGF-treated PC12 cells, 14 days

Compound: N[C@H](C(=O)O)c1cc(=O)[nH]o1 [ibotenic acid, reference compound]
gliosis / gliotic scarring after brain injection [1]: robust gliotic scarring around the injection site

formation of macroscopic membranes ([4]; identical conditions, in words): found to form macroscopic membranes | membranous structure in Water ([4]; water): −
Compound: H-AAAADADARARADAD-OH [RAD16]
neurite outgrowth of NGF-treated PC12 cells, in words (PC12 cells; NGF-treated PC12 cells on membranes): robust neurite processes; also recorded: Robust neurite outgrowth | neurite outgrowth length (PC12 cells; [5]): greater than 400 μm | neurite outgrowth length relative to the cell body (PC12 cells; [5]): 15-20 times the cell body | Neurite outgrowth, untreated, 14 days (PC12 cells; PC12 cells without NGF, 14 days): − (no neurite outgrowth) | Neurite outgrowth, NGF treated, 14 days (PC12 cells; PC12 cells, NGF 50 ng/ml, 14 days): ++++ | stability of membranes in water or PBS [2]: stable in water or PBS for at least a week | neurite outgrowth on biopolymers [3]: occurs on RAD16-based biopolymers | cell attachment (3T3 fibroblast cells; 3T3, 30 min, medium with serum, no cyclohexamide): ++++ | cell attachment (3T3 fibroblast cells; 3T3, 30 min, serum-free medium, + cyclohexamide): ++++ | cell attachment (3T3 fibroblast cells; 3T3, 60 min, medium with serum, no cyclohexamide): ++++ | cell attachment (3T3 fibroblast cells; 3T3, 60 min, serum-free medium, + cyclohexamide): ++++ | cell attachment (3T3 fibroblast cells; 3T3, 8 hrs, medium with serum, no cyclohexamide): ++++ | cell attachment (3T3 fibroblast cells; 3T3, 8 hrs, serum-free medium, + cyclohexamide): ++ | cell attachment (PC12; PC12, 30 min, Ca^++ & Mg^++ free, EDTA serum-free + Cyclohex): ++++ | cell attachment (PC12; PC12, 30 min, Normal Ca^++ & Mg^++ serum-free + Cyclohex): ++++ | cell attachment (PC12; PC12, 60 min, Ca^++ & Mg^++ free, EDTA serum-free + Cyclohex): ++++ | cell attachment (PC12; PC12, 60 min, Normal Ca^++ & Mg^++ serum-free + Cyclohex): ++++ | cell attachment (PC12NGF; 30 min, Ca^++ & Mg^++ free, EDTA serum-free + Cyclohex): ++++ | cell attachment (PC12NGF; 30 min, Normal Ca^++ & Mg^++ serum-free + Cyclohex): ++++ | cell attachment (PC12NGF; 60 min, Ca^++ & Mg^++ free, EDTA serum-free + Cyclohex): ++++ | cell attachment (PC12NGF; 60 min, Normal Ca^++ & Mg^++ serum-free + Cyclohex): ++++ | cell attachment (3T3): ++++

— patent US6800481B1, “Stable macroscopic membranes formed by self-assembly of amphiphilic peptides and uses therefor” (priority 1992, dated 2004)
